Experimental data published in article PMC3831368 (Bioorganic & medicinal chemistry, 2013).

Key:
W318A MOR = W318A MOR (Mus musculus, UniProt P42866, W318A); test: Competition binding to site-directed mutated MOR W318A; conditions: read-out: W318A MOR IC50; ± SEM; transient CHO cells
morphine antinociception = conditions: cited from earlier work
MOR [1] = target: T1, MOR (Mus musculus, UniProt P42866); conditions: cited from earlier work
MOR [2] = target: T1, MOR; conditions: in vitro radioligand competition binding; cited from earlier work

T1 sequence (P42866 whole entry): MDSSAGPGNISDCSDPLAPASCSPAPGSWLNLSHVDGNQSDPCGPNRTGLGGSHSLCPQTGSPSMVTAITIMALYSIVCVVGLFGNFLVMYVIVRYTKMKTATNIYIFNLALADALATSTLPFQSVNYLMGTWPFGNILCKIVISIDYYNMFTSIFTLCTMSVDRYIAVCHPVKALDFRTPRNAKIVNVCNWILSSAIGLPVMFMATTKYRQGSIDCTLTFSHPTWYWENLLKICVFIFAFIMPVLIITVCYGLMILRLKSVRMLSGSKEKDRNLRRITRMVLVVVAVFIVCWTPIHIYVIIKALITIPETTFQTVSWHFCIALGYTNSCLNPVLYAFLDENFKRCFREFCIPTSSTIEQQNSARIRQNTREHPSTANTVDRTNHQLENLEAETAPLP
W318A MOR, sequence (P42866 whole entry W318A): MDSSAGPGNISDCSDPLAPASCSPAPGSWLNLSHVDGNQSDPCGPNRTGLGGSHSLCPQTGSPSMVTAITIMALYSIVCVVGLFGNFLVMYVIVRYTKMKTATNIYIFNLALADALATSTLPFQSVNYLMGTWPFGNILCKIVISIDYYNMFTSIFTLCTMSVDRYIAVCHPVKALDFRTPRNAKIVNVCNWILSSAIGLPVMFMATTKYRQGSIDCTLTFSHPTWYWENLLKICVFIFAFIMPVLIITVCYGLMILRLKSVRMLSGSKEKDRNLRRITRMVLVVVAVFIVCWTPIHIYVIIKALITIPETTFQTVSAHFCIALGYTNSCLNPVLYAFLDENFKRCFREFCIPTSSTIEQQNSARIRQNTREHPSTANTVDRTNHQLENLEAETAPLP

O=C(N[C@H]1CC[C@@]2(O)[C@H]3Cc4ccc(O)c5c4[C@@]2(CCN3CC2CC2)[C@H]1O5)c1cc2ccccc2cn1 [NAQ]
IC50 (W318A MOR): > 1000 nM | antagonism in in vivo antinociceptive test against morphine (morphine antinociception): potent antagonism | agonism in the in vitro GTPγS assay (MOR [1]): marginal partial agonism | affinity for the MOR (MOR [2]): sub-nanomolar

O=C(N[C@@H]1CC[C@@]2(O)[C@H]3Cc4ccc(O)c5c4[C@@]2(CCN3CC2CC2)[C@H]1O5)c1ccncc1 [NAP]
antagonism in in vivo antinociceptive test against morphine (morphine antinociception): potent antagonism | agonism in the in vitro GTPγS assay (MOR [1]): marginal partial agonism | affinity for the MOR (MOR [2]): sub-nanomolar
